Assays:
Format in all cases: cell-based
SUDHL6 = experiment: Cell viability, Promega Celltiter Fluor (72 h); conditions: Homo sapiens, SU-DHL-6; SUDHL6, Double-Hit Lymphoma, assay duration 72 hours; read-out: LP-284 IC50
Experimental: (§1) The sensitivity and selectivity of Compound 1 (with positive optical chirality) was assessed using a panel of human blood cell lines. The cell lines used in this Example are shown below and plotted in FIG. 1. The cells were inoculated into 96 well plates at various numbers of cells/well depending on the doubling time of the cell line for 24 hours. Then these cells were treated by Compound 1 at 5˜8 different doses and DMSO vehicle controls. After another 48 or 72 hour incubation, the number viable cells/wells were measured by the sulforhodamine B (SRB) assay (48 h) or the Promega Celltiter Fluor Cell Viability (72 h). IC50 values were then calculated based on normalized cell counts at different Compound 1 doses. Anti-proliferative activity was determined by cell viability measurements.

REH = experiment: Cell viability, Promega Celltiter Fluor (72 h); conditions: Homo sapiens, Acute Lymphoblastic Leukemia, assay duration 72 hours, read-out: LP-284 IC50
Experimental: as §1

U937 = experiment: Cell viability, Promega Celltiter Fluor (72 h); conditions: Homo sapiens, U-937; U937, Acute Myeloid Leukemia, assay duration 72 hours; read-out: LP-284 IC50
Experimental: as §1

K562R = experiment: Cell viability, Promega Celltiter Fluor (72 h); conditions: Homo sapiens, K-562R, Chronic Myeloid Leukemia, assay duration 72 hours, read-out: LP-284 IC50
Experimental: as §1

KU812 = experiment: Cell viability, Promega Celltiter Fluor (72 h); conditions: Homo sapiens; KU812, Chronic Myeloid Leukemia, assay duration 72 hours; read-out: LP-284 IC50
Experimental: as §1

K562 = experiment: Cell viability, Promega Celltiter Fluor (72 h); conditions: Homo sapiens; K562, Chronic Myeloid Leukemia, assay duration 72 hours; read-out: LP-284 IC50
Experimental: as §1

Z138 = experiment: Cell viability, Promega Celltiter Fluor (72 h); conditions: Homo sapiens, Z-138; Z138, Mantle Cell Lymphoma, assay duration 72 hours; read-out: LP-284 IC50
Experimental: as §1

JVM2 = experiment: Cell viability, Promega Celltiter Fluor (72 h); conditions: Homo sapiens, JVM-2; JVM2, Mantle Cell Lymphoma, assay duration 72 hours; read-out: LP-284 IC50
Experimental: as §1

THP1 = experiment: Cell viability, Promega Celltiter Fluor (72 h); conditions: Homo sapiens, THP-1; THP1, Acute Myeloid Leukemia, assay duration 72 hours; read-out: LP-284 IC50
Experimental: as §1

CA46 = experiment: Cell viability, Promega Celltiter Fluor (72 h); conditions: Homo sapiens; CA46, Burkitt's Lymphoma, assay duration 72 hours; read-out: LP-284 IC50
Experimental: as §1

MAVER1 = experiment: Cell viability, Promega Celltiter Fluor (72 h); conditions: Homo sapiens; MAVER1, Mantle Cell Lymphoma, assay duration 72 hours; read-out: LP-284 IC50
Experimental: as §1

SUPB15 = experiment: Cell viability, Promega Celltiter Fluor (72 h); conditions: Homo sapiens, SUP-B15; SUPB15, Acute Lymphoblastic Leukemia, assay duration 72 hours; read-out: LP-284 IC50
Experimental: as §1

AML193 = experiment: Cell viability, Promega Celltiter Fluor (72 h); conditions: Homo sapiens; AML193, Acute Myeloid Leukemia, assay duration 72 hours; read-out: LP-284 IC50
Experimental: as §1

NCIH929 = experiment: Cell viability, Promega Celltiter Fluor (72 h); conditions: Homo sapiens, NCI-H929; NCIH929, Multiple Myeloma, assay duration 72 hours; read-out: LP-284 IC50
Experimental: as §1

JEKO1 = experiment: Cell viability, Promega Celltiter Fluor (72 h); conditions: Homo sapiens, JeKo-1; JEKO1, Mantle Cell Lymphoma, assay duration 72 hours; read-out: LP-284 IC50
Experimental: as §1

REC1 = experiment: Cell viability, Promega Celltiter Fluor (72 h); conditions: Homo sapiens; REC1, Mantle Cell Lymphoma, assay duration 72 hours; read-out: LP-284 IC50
Experimental: as §1

MINO = experiment: Cell viability, Promega Celltiter Fluor (72 h); conditions: Homo sapiens, Mantle Cell Lymphoma, assay duration 72 hours, read-out: LP-284 IC50
Experimental: as §1

MOLT4 = experiment: Cell viability, sulforhodamine B (SRB) assay (48 h); conditions: Homo sapiens, MOLT-4; MOLT4, Acute Lymphoblastic Leukemia, assay duration 48 hours; read-out: LP-284 IC50
Experimental: as §1

HL60TB = experiment: as above; conditions: Homo sapiens, HL-60, Acute Myeloid Leukemia, assay duration 48 hours, read-out: LP-284 IC50
Experimental: as §1

SR = experiment: as above; conditions: Homo sapiens, Anaplastic large cell lymphoma, assay duration 48 hours, read-out: LP-284 IC50
Experimental: as §1

RPMI8226 = experiment: as above; conditions: Homo sapiens, RPMI-8226; RPMI8226, Multiple Myeloma, assay duration 48 hours; read-out: LP-284 IC50
Experimental: as §1

CCRFCEM = experiment: as above; conditions: Homo sapiens, CCRF-CEM, Acute Lymphoblastic Leukemia, assay duration 48 hours, read-out: LP-284 IC50
Experimental: as §1

## CC1=C(CN(O)C(N)=O)C2=C(C)C3(CC3)[C@@](C)(O)C(=O)C2=C1 [LP-284, hydroxyureamethyl acylfulvene]
SUDHL6
  IC50: 449 nM
REH
  IC50: 114 nM
U937
  IC50: 660 nM
K562R
  IC50: 295 nM
KU812
  IC50: 488 nM
K562
  IC50: 298 nM
Z138
  IC50: 370 nM
JVM2
  IC50: 343 nM
THP1
  IC50: 1500 nM
CA46
  IC50: 431 nM
MAVER1
  IC50: 193 nM
SUPB15
  IC50: 588 nM
AML193
  IC50: 1800 nM
NCIH929
  IC50: 334 nM
JEKO1
  IC50: 263 nM
REC1
  IC50: 794 nM
MINO
  IC50: 88 nM
MOLT4
  IC50: 9020 nM
HL60TB
  IC50: 952 nM
SR
  IC50: 896 nM
RPMI8226
  IC50: 348 nM
CCRFCEM
  IC50: 2220 nM
